Source: PubChem BioAssay (NCI)
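Exposure lasted 48 hours, with cells grown in 96-well plates and compounds tested at five concentrations. GI50 marks 50% less growth. TGI: concentration producing complete growth inhibition.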

Experiments:
Experiment in all cases: DTP human tumour cell line panel, 48 h
786-0 renal = system: 786-0 renal
A498 renal = system: A498 renal
A549 NSCLC = system: A549 NSCLC
ACHN renal = system: ACHN renal
BT-549 breast = system: BT-549 breast
CAKI-1 renal = system: CAKI-1 renal
CCRF-CEM leukemia = system: CCRF-CEM leukemia
COLO 205 colon = system: COLO 205 colon
DU-145 prostate = system: DU-145 prostate
EKVX NSCLC = system: EKVX NSCLC
HCC-2998 colon = system: HCC-2998 colon
HCT-116 colon = system: HCT-116 colon
HCT-15 colon = system: HCT-15 colon
HL-60(TB) leukemia = system: HL-60(TB) leukemia
HOP-62 NSCLC = system: HOP-62 NSCLC
HOP-92 NSCLC = system: HOP-92 NSCLC
HS 578T breast = system: HS 578T breast
HT29 colon = system: HT29 colon
IGROV1 ovarian = system: IGROV1 ovarian
K-562 leukemia = system: K-562 leukemia
KM12 colon = system: KM12 colon
LOX IMVI melanoma = system: LOX IMVI melanoma
M14 melanoma = system: M14 melanoma
MALME-3M melanoma = system: MALME-3M melanoma
MCF7 breast = system: MCF7 breast
MDA-MB-231 breast = system: MDA-MB-231 breast
MDA-MB-435 = system: MDA-MB-435
MDA-MB-468 breast = system: MDA-MB-468 breast
MOLT-4 leukemia = system: MOLT-4 leukemia
NCI-H226 lung = system: NCI-H226 lung
NCI-H23 lung = system: NCI-H23 lung
NCI-H460 lung = system: NCI-H460 lung
NCI-H522 lung = system: NCI-H522 lung
NCI/ADR-RES ovarian = system: NCI/ADR-RES ovarian
OVCAR-3 ovarian = system: OVCAR-3 ovarian
OVCAR-4 ovarian = system: OVCAR-4 ovarian
OVCAR-5 ovarian = system: OVCAR-5 ovarian
OVCAR-8 ovarian = system: OVCAR-8 ovarian
PC-3 prostate = system: PC-3 prostate
RPMI-8226 leukemia = system: RPMI-8226 leukemia
RXF 393 renal = system: RXF 393 renal
SF-268 CNS = system: SF-268 CNS
SF-295 CNS = system: SF-295 CNS
SF-539 CNS = system: SF-539 CNS
SK-MEL-2 melanoma = system: SK-MEL-2 melanoma
SK-MEL-28 melanoma = system: SK-MEL-28 melanoma
SK-MEL-5 melanoma = system: SK-MEL-5 melanoma
SK-OV-3 ovarian = system: SK-OV-3 ovarian
SN12C renal = system: SN12C renal
SNB-19 CNS = system: SNB-19 CNS
SNB-75 CNS = system: SNB-75 CNS
SR leukemia = system: SR leukemia
SW-620 colon = system: SW-620 colon
T-47D breast = system: T-47D breast
TK-10 renal = system: TK-10 renal
U251 CNS = system: U251 CNS
UACC-257 melanoma = system: UACC-257 melanoma
UACC-62 melanoma = system: UACC-62 melanoma
UO-31 renal = system: UO-31 renal

Which results are given for Cn1ncc2c(N)nc(Oc3ccccc3-c3ccccc3)nc21?
GI50 (786-0 renal): 26.4 µM; TGI (786-0 renal): > 100 µM; GI50 (A498 renal): 62.2 µM; TGI (A498 renal): > 100 µM; GI50 (A549 NSCLC): 6.74 µM; TGI (A549 NSCLC): > 100 µM; GI50 (ACHN renal): 20.6 µM; TGI (ACHN renal): > 100 µM; GI50 (BT-549 breast): 4.28 µM; TGI (BT-549 breast): 37.6 µM; GI50 (CAKI-1 renal): 7.72 µM; TGI (CAKI-1 renal): > 100 µM; GI50 (CCRF-CEM leukemia): 3.73 µM; TGI (CCRF-CEM leukemia): 46.3 µM; GI50 (COLO 205 colon): 7.05 µM; TGI (COLO 205 colon): > 100 µM; GI50 (DU-145 prostate): 32.3 µM; TGI (DU-145 prostate): > 100 µM; GI50 (EKVX NSCLC): 9.41 µM; TGI (EKVX NSCLC): > 100 µM; GI50 (HCC-2998 colon): 10.2 µM; TGI (HCC-2998 colon): > 100 µM; GI50 (HCT-116 colon): 4.53 µM; TGI (HCT-116 colon): > 100 µM; GI50 (HCT-15 colon): 3.79 µM; TGI (HCT-15 colon): > 100 µM; GI50 (HL-60(TB) leukemia): 3.93 µM; TGI (HL-60(TB) leukemia): 30.5 µM; GI50 (HOP-62 NSCLC): 32 µM; TGI (HOP-62 NSCLC): > 100 µM; GI50 (HOP-92 NSCLC): 14.3 µM; TGI (HOP-92 NSCLC): > 100 µM; GI50 (HS 578T breast): 5.73 µM; TGI (HS 578T breast): 41.4 µM; GI50 (HT29 colon): 3.4 µM; TGI (HT29 colon): 34.6 µM; GI50 (IGROV1 ovarian): 8.02 µM; TGI (IGROV1 ovarian): > 100 µM; GI50 (K-562 leukemia): 3.44 µM; TGI (K-562 leukemia): > 100 µM; GI50 (KM12 colon): 4.82 µM; TGI (KM12 colon): > 100 µM; GI50 (LOX IMVI melanoma): 7.01 µM; TGI (LOX IMVI melanoma): > 100 µM; GI50 (M14 melanoma): 4.54 µM; TGI (M14 melanoma): > 100 µM; GI50 (MALME-3M melanoma): 4.3 µM; TGI (MALME-3M melanoma): > 100 µM; GI50 (MCF7 breast): 3.66 µM; TGI (MCF7 breast): > 100 µM; GI50 (MDA-MB-231 breast): 4.54 µM; TGI (MDA-MB-231 breast): > 100 µM; GI50 (MDA-MB-435): 1.99 µM; TGI (MDA-MB-435): 5.44 µM; GI50 (MDA-MB-468 breast): 1.74 µM; TGI (MDA-MB-468 breast): 4.92 µM; GI50 (MOLT-4 leukemia): 4.22 µM; TGI (MOLT-4 leukemia): 34.7 µM; GI50 (NCI-H226 lung): 6.65 µM; TGI (NCI-H226 lung): 97.2 µM; GI50 (NCI-H23 lung): 8.54 µM; TGI (NCI-H23 lung): > 100 µM; GI50 (NCI-H460 lung): 3.87 µM; TGI (NCI-H460 lung): > 100 µM; GI50 (NCI-H522 lung): 2.21 µM; TGI (NCI-H522 lung): 7.03 µM; GI50 (NCI/ADR-RES ovarian): 3.26 µM; TGI (NCI/ADR-RES ovarian): 17.5 µM; GI50 (OVCAR-3 ovarian): 6.61 µM; TGI (OVCAR-3 ovarian): > 100 µM; GI50 (OVCAR-4 ovarian): 19.3 µM; TGI (OVCAR-4 ovarian): > 100 µM; GI50 (OVCAR-5 ovarian): 6.5 µM; TGI (OVCAR-5 ovarian): > 100 µM; GI50 (OVCAR-8 ovarian): 13.1 µM; TGI (OVCAR-8 ovarian): 65.1 µM; GI50 (PC-3 prostate): 13.3 µM; TGI (PC-3 prostate): > 100 µM; GI50 (RPMI-8226 leukemia): 3.94 µM; TGI (RPMI-8226 leukemia): 27.4 µM; GI50 (RXF 393 renal): 10.3 µM; TGI (RXF 393 renal): 47 µM; GI50 (SF-268 CNS): 23.7 µM; TGI (SF-268 CNS): > 100 µM; GI50 (SF-295 CNS): 6.11 µM; TGI (SF-295 CNS): > 100 µM; GI50 (SF-539 CNS): 7.68 µM; TGI (SF-539 CNS): > 100 µM; GI50 (SK-MEL-2 melanoma): 4.36 µM; TGI (SK-MEL-2 melanoma): > 100 µM; GI50 (SK-MEL-28 melanoma): 8.4 µM; TGI (SK-MEL-28 melanoma): > 100 µM; GI50 (SK-MEL-5 melanoma): 3.64 µM; TGI (SK-MEL-5 melanoma): 18.2 µM; GI50 (SK-OV-3 ovarian): 30.3 µM; TGI (SK-OV-3 ovarian): > 100 µM; GI50 (SN12C renal): 7.43 µM; TGI (SN12C renal): > 100 µM; GI50 (SNB-19 CNS): 29.3 µM; TGI (SNB-19 CNS): > 100 µM; GI50 (SNB-75 CNS): 3.75 µM; TGI (SNB-75 CNS): 34.2 µM; GI50 (SR leukemia): 2.91 µM; TGI (SR leukemia): > 100 µM; GI50 (SW-620 colon): 3.89 µM; TGI (SW-620 colon): > 100 µM; GI50 (T-47D breast): 4.91 µM; TGI (T-47D breast): > 100 µM; GI50 (TK-10 renal): 19.7 µM; TGI (TK-10 renal): > 100 µM; GI50 (U251 CNS): 4.77 µM; TGI (U251 CNS): > 100 µM; GI50 (UACC-257 melanoma): 8.36 µM; TGI (UACC-257 melanoma): > 100 µM; GI50 (UACC-62 melanoma): 4.1 µM; TGI (UACC-62 melanoma): 36.7 µM; GI50 (UO-31 renal): 11.4 µM; TGI (UO-31 renal): > 100 µM
